Reference: ChEMBL document CHEMBL1201862, “PubChem BioAssay data set” (2004)
Several values for one entry are separate records, joined by “and”; a condition that tells them apart may be missing. Equal values may be shown once.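 Method: 48-hour compound exposure of cells in 96-well plates, five concentrations, linear interpolation of endpoints. GI50 = concentration required for 50% inhibition of growth.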 Activity calls are given as the source filed them. Cut-off read from the data, not from the text of the source: active = GI50 up to about 1.1 µM and inactive = higher.

Tests used:
Test in all cases: inhibition of tumour cell growth, NCI panel, 48 h
CAKI-1 = tested on: CAKI-1
CCRF-CEM = tested on: CCRF-CEM
DU-145 = tested on: DU-145
HOP-62 = tested on: HOP-62
Hs-578T = tested on: Hs-578T
K562 = tested on: K562
KM12 = tested on: KM12
MDA-MB-231 = tested on: MDA-MB-231
MOLT-4 = tested on: MOLT-4
NCI/ADR-RES = tested on: NCI/ADR-RES
OVCAR-3 = tested on: OVCAR-3
PC-3 = tested on: PC-3
SF-295 = tested on: SF-295
SF-539 = tested on: SF-539
SNB-75 = tested on: SNB-75
SR = tested on: SR
SW-620 = tested on: SW-620
TK-10 = tested on: TK-10
U-251 = tested on: U-251
UACC-257 = tested on: UACC-257

Measured: GI50

CCNC(=S)/N=c1\sc(NCC)nc2sc3c(c12)CCN(N1CCc2c(sc4nc(NCC)s/c(=N\C(=S)NCC)c24)C1)C3
inactive: CAKI-1 > 100 µM | CCRF-CEM 41.9 µM | DU-145 77.8 µM | HOP-62 57.3 µM | Hs-578T > 100 µM | K562 27.7 µM | KM12 40.2 µM | MDA-MB-231 29.5 µM | MOLT-4 34.1 µM | NCI/ADR-RES > 100 µM | OVCAR-3 > 100 µM | PC-3 > 100 µM | SF-295 72.4 µM | SF-539 15.5 µM | SNB-75 > 100 µM | SR 30.5 µM | SW-620 34.7 µM | TK-10 > 100 µM | U-251 33.3 µM | UACC-257 > 100 µM

Cn1c(N/N=C/c2ccccc2)nc(-c2ccc([N+](=O)[O-])cc2)c(C#N)c1=O
inactive: CAKI-1 54.5 µM | CCRF-CEM 26 µM | DU-145 34.7 µM | HOP-62 77.8 µM | Hs-578T 55.1 µM | K562 1.61 µM | KM12 26.9 µM | MDA-MB-231 19.5 µM | MOLT-4 10.4 µM | NCI/ADR-RES 86.3 µM | OVCAR-3 20.5 µM | PC-3 59.6 µM | SF-295 50.1 µM | SF-539 69.2 µM | SNB-75 88.5 µM | SR 2.63 µM | SW-620 65.8 µM | TK-10 55 µM | U-251 66.1 µM | UACC-257 50 µM

CC(C)c1c(O[Si](C(C)C)(C(C)C)C(C)C)c2c3c(ccc4c3c1OC4(C)C)C(C)CC2 (stereo not given)
inactive: CAKI-1 > 100 µM | CCRF-CEM > 100 µM | DU-145 > 100 µM | HOP-62 > 100 µM | Hs-578T > 100 µM | K562 > 100 µM | KM12 > 100 µM | MDA-MB-231 > 100 µM | MOLT-4 > 100 µM | NCI/ADR-RES > 100 µM | OVCAR-3 > 100 µM | PC-3 > 100 µM | SF-295 > 100 µM | SF-539 > 100 µM | SNB-75 21.3 µM | SR > 100 µM | SW-620 > 100 µM | TK-10 > 100 µM | U-251 > 100 µM | UACC-257 > 100 µM

NCCOCC(N)C(=O)O (stereo not given)
inactive: CAKI-1 > 100 µM | CCRF-CEM > 100 µM and > 72.8 µM | DU-145 > 100 µM | HOP-62 > 100 µM | Hs-578T > 100 µM | K562 > 100 µM | KM12 > 100 µM | MDA-MB-231 > 100 µM | MOLT-4 > 100 µM | NCI/ADR-RES > 100 µM | OVCAR-3 > 100 µM | PC-3 > 100 µM | SF-295 > 100 µM | SF-539 > 100 µM | SNB-75 > 100 µM | SR > 100 µM and 54.8 µM | SW-620 > 100 µM | TK-10 > 100 µM | U-251 > 100 µM | UACC-257 > 100 µM

COC(=O)Cc1ccc(Oc2nc3ccccc3nc2-c2cccs2)cc1
inactive: CAKI-1 > 100 µM | CCRF-CEM > 100 µM | DU-145 > 100 µM | HOP-62 38.5 µM | Hs-578T 39.8 µM | K562 > 100 µM | KM12 > 100 µM | MDA-MB-231 27.2 µM | MOLT-4 > 100 µM | NCI/ADR-RES 79.4 µM | OVCAR-3 > 100 µM | PC-3 > 100 µM | SF-295 30.8 µM | SF-539 52 µM | SNB-75 6.81 µM | SR > 100 µM | SW-620 > 100 µM | TK-10 95.9 µM | U-251 39.1 µM | UACC-257 > 100 µM
